From patent US7923461B2, “TNF-α production inhibitors” (Santen Pharmaceutical Co., Ltd., priority 2000, dated 2011)

Columns and labels:
[1] = system: TNF-α production; assay: Inhibitory effects on TNF-α production induced by lipopolysaccharide (LPS) stimulation, in vivo test; design: species or system rat; details: Rattus norvegicus, 2 h, female rats, plasma TNF-α (ELISA) two hours after LPS, read-out: Inhibition rate (%) of TNF-α production; for inhibition in vivo at 3 mg/kg: oral administration of 3 mg/kg immediately after LPS to footpad
Procedure: Inhibitory effects on TNF-α production induced by lipopolysaccharide (LPS) stimulation were studied by in vivo tests according to the method of Tsuji et al. (Inflamm res. 46 (1997) 193-198).
Female rats (five per group), body weight of about 200 g, about eight weeks old, were used as test animals. LPS from Salmonella was dissolved in physiological saline to prepare an LPS solution (1 mg/ml). Each test substance was dissolved or uniformly suspended in a 1% methylcellulose solution to give test substance-preparation liquids.
The above-mentioned LPS solution (0.5 ml/kg) was administered to a footpad of the rat. Immediately after the LPS administration, the test substance-preparation liquid (containing 10 mg/kg or 3 mg/kg test substance) was orally administered. Two hours after the LPS administration, blood was collected from abdominal aorta and was centrifuged at 4° C. and 3000 rpm for ten minutes. TNF-α levels in the obtained plasma were measured with a rat TNF-α-specific ELISA kit. TNF-α was not observed in the plasma with respect to an LPS-non-administered group (control).
Inhibition rates of TNF-α production of the test substances were determined by the following equation. Inhibition rate (%)=[(A−B)/A]×100 A: TNF-α level in plasma of test substance-nonadministered group B: TNF-α level in plasma of test substance-administered group (Results)

Compound: O=C(NCCCc1ccncc1)N(CCC12CC3CC(CC(C3)C1)C2)C1CCCC1 [Compound No. 1-70, 1-[2-(1-Adamantyl)ethyl]-1-cyclopentyl-3-[3-(4-pyridyl)propyl]urea]
- inhibition in vivo at 10 mg/kg ([1]; oral administration of 10 mg/kg immediately after LPS to footpad): 87.9%
- melting point: 135.5 to 137.5 °C

Compound: CCCCCN(CCC12CC3CC(CC(C3)C1)C2)C(=O)NCCCc1cccnc1 [Compound No. 1-84, 1-[2-(1-Adamantyl)ethyl]-1-pentyl-3-[3-(3-pyridyl)propyl]urea]
- inhibition in vivo at 3 mg/kg [1]: 35.5%
- melting point: 99.9 to 105.2 °C

Compound: CCCCCN(CCC12CC3CC(CC(C3)C1)C2)C(=O)NC(C)CCc1ccncc1 (stereo not drawn) [Compound No. 1-137, 1-[2-(1-Adamantyl)ethyl]-3-[1-methyl-3-(4-pyridyl)propyl]-1-pentylurea]
- inhibition in vivo at 3 mg/kg [1]: 82.1%
- melting point: 128.5 to 129 °C
